This is an account of results in PMC9757750 (Science Advances, 2022).

For the assay, the target named is LegA15 (Legionella pneumophila, UniProt Q5ZSR1). Description: biochemical.
LegA15, sequence (Q5ZSR1 1-471): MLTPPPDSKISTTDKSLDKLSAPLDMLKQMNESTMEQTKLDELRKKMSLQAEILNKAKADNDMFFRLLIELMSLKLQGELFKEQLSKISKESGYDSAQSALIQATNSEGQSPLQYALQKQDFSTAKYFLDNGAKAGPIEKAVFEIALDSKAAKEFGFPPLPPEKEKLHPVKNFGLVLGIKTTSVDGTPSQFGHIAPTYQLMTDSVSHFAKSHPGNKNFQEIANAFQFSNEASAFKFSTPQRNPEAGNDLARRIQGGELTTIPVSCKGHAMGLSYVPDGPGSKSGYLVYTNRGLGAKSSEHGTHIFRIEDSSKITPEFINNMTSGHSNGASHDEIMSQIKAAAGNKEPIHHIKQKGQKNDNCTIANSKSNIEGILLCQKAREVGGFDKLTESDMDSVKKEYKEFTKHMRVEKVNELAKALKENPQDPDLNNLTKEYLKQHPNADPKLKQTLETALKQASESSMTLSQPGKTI

Broadly, the Kd is the concentration at which binding is half-saturated. Higher therefore signals a looser complex. The compound `Nc1nc2c(ncn2[C@@H]2O[C@H](COP(=O)(O)OP(=O)(O)O)[C@@H](O)[C@H]2O)c(=O)[nH]1` [GDP] returned a Kd of 20.5 µM. That is a double-digit micromolar value.
Turning to `Nc1nc2c(ncn2[C@@H]2O[C@H](COP(=O)(O)OP(=O)(O)OP(=O)(O)O)[C@@H](O)[C@H]2O)c(=O)[nH]1` [GTP], the affinity, expressed as Kd, was 1.38 µM.
